Measured values from PMC4980009, “Epitope Mapping of a Monoclonal Antibody Directed against Neisserial Heparin Binding Antigen Using Next Generation Sequencing of Antigen-Specific Libraries” (PLoS ONE, 2016).

Tests used:
[1] = test system: mAb 31E10/E7; assay: Inhibition ELISA of mAb 31E10/E7 binding to NHBA-NUbp-His; parameters: species or system murine
From the text: We sought to verify whether the antigenic fragments identified by phage display analysis reacted against the 31E10/E7 mAb in a molecular context other than capsid proteins and how these binding activities compared to that of the whole antigen molecule. For this analysis, FrI and FrII were produced as GST fusion proteins and probed against the 31E10/E7 mAb in an inhibition ELISA assay. A third fragment, FrIII, encompassing residues F324-D391, was also produced in fusion with GST and used as a negative control. In the ELISA inhibition experiments, the NHBA-NUbp-His fusion protein was used as coating antigen and reactivity against 31E10/E7 was measured in the presence and in the absence of GST-FrI, GST-FrII and GST-FrIII.
The immunoreactivity of NHBA antigenic fragments against the 31E10/E7 mAb was tested using a previously described ELISA inhibition assay. Briefly, the 31E10/E7 mAb (1 μg/ml) was preincubated with micromolar concentrations of competitors (represented by the indicated NHBA fragments or by the entire antigen fused to an histidine tail) prior to the addition to microtiter wells sensitized with the whole fusion antigen (NHBA-NUbp fused to an histidine tail or NHBA-NUbp-His, 5 μg/ml). […] Percent inhibition was calculated by comparing the absorbance value of wells with and without the inhibitors.

[2] = target: mAb 31E10/E7; assay: Solution-equilibrium ELISA (Friguet) KD of NHBA fragment–mAb complexes; format: binding, murine; settings: equilibrium in solution, antigen 7 to 480 nM with mAb 0.7 nM, -^§ = No interaction was detected under the tested conditions, read-out: KD ± SD (no interaction detected)
From the text: Next, we sought to directly compare, for their ability to reconstitute the epitope recognized by mAb 31E10/E7, the peptides identified by peptide scanning with the fragments previously identified by PROFILER. To this end, we selected Peptide 5 (Pep-5, spanning P95-E109; Fig 5A) and FrII (D91-A128; Fig 2A) as representatives of the two categories. First, we measured the ability of the fragments to compete with the whole antigen (NHBA-NUbp-His) for binding to mAb 31E10/E7 in the ELISA inhibition assay described above. […] To further analyze this, we measured the affinities of the NHBA fragments for mAb 31E10/E7 using an ELISA assay that can provide reliable estimates of the equilibrium dissociation constant (KD) of antigen-antibody complexes in solution [20].
KD values of complexes between mAb 31E10/E7 and NHBA fragments at equilibrium in solution were measured using the ELISA test of Friguet et al, exactly as described by Heinrich et al.. […] Under these conditions, absorbance is proportional to the concentration of free mAb 31E10/E7 added to each well. The results for each antigen were analyzed using the plot described by Friguet et al ([19]; S2 Fig), which provides a KD value for the complex in solution. Results were expressed as means and standard deviations of the 4 KD values determined for each of the 4 antigen concentrations used to coat the wells.

TPAS
competition with the whole antigen for binding to mAb 31E10/E7 ([1]; NHBA-NUbp-His coated 5 μg/ml, mAb 1 μg/ml, Fig 3B, three independent experiments): but not the TPAS tetrapeptide
binding to the mAb ([1]; even at high concentrations (Fig 3B)): unable to bind the mAb
Kd [2]: > 480 nM
